Measurements reported in patent publication US9388179B2, “N-substituted indazole sulfonamide compounds with selective activity in voltage-gated sodium channels” (Merck Sharp & Dohme Corp., priority 2012, dated 2016).

Columns and labels:
Assay type in all cases: cell-based
[1] = target: T1, human Nav1.5 channels stably expressed in HEK 293 cells (Homo sapiens, UniProt Q14524); test: IonWorks Quattro automated patch-clamp, inactivated state block; conditions: IonWorks technique
T1 construct: expressed in transfected cells; host or cells: HEK 293
T1 sequence (Q14524 whole entry): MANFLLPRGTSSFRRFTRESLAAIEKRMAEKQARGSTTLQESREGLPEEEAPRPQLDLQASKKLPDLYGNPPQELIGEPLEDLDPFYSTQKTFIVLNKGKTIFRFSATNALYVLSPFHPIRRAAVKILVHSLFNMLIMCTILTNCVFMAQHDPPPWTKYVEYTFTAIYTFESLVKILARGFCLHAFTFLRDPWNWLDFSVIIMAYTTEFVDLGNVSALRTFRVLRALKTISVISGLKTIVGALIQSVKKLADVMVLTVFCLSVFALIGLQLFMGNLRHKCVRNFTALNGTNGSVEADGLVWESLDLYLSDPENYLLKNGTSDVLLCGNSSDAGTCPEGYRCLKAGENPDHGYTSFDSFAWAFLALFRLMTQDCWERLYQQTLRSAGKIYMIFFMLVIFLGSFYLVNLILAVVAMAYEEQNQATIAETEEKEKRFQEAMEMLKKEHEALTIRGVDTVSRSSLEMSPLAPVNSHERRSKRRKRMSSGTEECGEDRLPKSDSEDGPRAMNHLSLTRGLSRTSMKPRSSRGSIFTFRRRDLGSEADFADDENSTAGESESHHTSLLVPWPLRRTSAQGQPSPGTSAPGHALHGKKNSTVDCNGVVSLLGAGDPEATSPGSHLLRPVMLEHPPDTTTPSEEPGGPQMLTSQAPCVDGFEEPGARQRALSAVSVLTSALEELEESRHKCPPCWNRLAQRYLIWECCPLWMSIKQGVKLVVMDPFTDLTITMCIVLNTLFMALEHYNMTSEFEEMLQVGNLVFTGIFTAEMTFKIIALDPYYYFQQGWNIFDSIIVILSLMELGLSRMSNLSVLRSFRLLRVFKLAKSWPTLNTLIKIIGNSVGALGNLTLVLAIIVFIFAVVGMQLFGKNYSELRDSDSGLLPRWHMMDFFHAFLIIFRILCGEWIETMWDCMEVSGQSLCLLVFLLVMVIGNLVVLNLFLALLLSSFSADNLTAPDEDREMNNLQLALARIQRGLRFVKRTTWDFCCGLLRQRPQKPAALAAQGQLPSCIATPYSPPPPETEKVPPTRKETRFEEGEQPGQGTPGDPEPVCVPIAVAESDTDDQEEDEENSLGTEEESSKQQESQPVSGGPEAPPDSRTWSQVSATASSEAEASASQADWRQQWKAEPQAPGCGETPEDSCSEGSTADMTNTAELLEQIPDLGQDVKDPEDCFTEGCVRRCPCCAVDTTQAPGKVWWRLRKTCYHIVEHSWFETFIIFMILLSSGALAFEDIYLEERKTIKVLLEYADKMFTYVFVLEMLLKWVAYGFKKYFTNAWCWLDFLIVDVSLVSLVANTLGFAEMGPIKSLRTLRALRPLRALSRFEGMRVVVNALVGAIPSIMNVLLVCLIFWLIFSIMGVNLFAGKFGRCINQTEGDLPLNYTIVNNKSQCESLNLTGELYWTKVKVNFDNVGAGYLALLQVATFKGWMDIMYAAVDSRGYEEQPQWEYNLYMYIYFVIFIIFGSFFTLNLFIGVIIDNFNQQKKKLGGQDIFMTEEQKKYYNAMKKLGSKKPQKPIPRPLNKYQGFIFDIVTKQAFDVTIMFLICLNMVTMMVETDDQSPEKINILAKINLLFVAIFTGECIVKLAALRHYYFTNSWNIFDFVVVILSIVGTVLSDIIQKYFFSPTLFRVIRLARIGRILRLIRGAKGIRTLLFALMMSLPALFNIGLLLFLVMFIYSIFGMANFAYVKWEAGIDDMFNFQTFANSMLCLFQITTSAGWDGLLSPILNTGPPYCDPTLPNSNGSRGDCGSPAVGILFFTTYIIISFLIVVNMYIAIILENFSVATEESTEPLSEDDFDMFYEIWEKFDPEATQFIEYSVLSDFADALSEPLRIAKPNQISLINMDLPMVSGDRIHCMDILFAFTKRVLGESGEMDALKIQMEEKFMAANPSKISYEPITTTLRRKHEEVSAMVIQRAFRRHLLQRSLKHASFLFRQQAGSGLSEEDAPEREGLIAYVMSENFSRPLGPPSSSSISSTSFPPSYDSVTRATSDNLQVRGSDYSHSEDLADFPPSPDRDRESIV
Protocol: (§1) For all electrophysiology experiments, offline analysis was used to correct for current rundown and to determine percent inhibition as a function of drug concentration. IC50 values were determined by fitting to the Hill equation.
(§2) Cell Based Assays for Nav 1.7 and Nav 1.5 Activity
(§3) Compounds were tested on human Nav1.7 and Nav1.5 channels stably expressed in HEK 293 cells. […] Cells were sealed on a planar substrate using the Population Patch […] (PPC) technology. Electrical access was obtained using both nystatin and amphotericin. A double-pulse protocol was used for the determination of IC50 values for inactivated state block. Nav1.7 and Nav1.5 expressing cells were voltage clamped at −100 mV and −110 mV, respectively. A depolarizing prepulse to −10 mV (Nav1.7) or −30 mV (Nav1.5) for 1000 ms followed by a 10 ms repolarization to −100 mV (Nav1.7) or −110 mV (Nav1.5) was given to generate fractional channel inactivation of 50%, followed by a 10 ms test pulse to −10 mV (Nav1.7) or −30 mV (Nav1.5) to measure peak current in control conditions and after compound addition. The following recording solutions were used (mM). External: 150 NaCl, 2 CaCl2, 5 KCl, 1 MgCl2, 10 HEPES, 12 Dextrose; internal: 120 CsF, 30 CsCl, 10 EGTA, 5 HEPES, 5 NaF, 2 MgCl2.

[2] = target: T2, human Nav1.7 channels stably expressed in HEK 293 cells (Homo sapiens, UniProt Q15858); test: as above; conditions: IonWorks technique; read-out: Nav 1.7 potency
T2 construct: expressed in transfected cells; host or cells: HEK 293
T2 sequence (Q15858 whole entry): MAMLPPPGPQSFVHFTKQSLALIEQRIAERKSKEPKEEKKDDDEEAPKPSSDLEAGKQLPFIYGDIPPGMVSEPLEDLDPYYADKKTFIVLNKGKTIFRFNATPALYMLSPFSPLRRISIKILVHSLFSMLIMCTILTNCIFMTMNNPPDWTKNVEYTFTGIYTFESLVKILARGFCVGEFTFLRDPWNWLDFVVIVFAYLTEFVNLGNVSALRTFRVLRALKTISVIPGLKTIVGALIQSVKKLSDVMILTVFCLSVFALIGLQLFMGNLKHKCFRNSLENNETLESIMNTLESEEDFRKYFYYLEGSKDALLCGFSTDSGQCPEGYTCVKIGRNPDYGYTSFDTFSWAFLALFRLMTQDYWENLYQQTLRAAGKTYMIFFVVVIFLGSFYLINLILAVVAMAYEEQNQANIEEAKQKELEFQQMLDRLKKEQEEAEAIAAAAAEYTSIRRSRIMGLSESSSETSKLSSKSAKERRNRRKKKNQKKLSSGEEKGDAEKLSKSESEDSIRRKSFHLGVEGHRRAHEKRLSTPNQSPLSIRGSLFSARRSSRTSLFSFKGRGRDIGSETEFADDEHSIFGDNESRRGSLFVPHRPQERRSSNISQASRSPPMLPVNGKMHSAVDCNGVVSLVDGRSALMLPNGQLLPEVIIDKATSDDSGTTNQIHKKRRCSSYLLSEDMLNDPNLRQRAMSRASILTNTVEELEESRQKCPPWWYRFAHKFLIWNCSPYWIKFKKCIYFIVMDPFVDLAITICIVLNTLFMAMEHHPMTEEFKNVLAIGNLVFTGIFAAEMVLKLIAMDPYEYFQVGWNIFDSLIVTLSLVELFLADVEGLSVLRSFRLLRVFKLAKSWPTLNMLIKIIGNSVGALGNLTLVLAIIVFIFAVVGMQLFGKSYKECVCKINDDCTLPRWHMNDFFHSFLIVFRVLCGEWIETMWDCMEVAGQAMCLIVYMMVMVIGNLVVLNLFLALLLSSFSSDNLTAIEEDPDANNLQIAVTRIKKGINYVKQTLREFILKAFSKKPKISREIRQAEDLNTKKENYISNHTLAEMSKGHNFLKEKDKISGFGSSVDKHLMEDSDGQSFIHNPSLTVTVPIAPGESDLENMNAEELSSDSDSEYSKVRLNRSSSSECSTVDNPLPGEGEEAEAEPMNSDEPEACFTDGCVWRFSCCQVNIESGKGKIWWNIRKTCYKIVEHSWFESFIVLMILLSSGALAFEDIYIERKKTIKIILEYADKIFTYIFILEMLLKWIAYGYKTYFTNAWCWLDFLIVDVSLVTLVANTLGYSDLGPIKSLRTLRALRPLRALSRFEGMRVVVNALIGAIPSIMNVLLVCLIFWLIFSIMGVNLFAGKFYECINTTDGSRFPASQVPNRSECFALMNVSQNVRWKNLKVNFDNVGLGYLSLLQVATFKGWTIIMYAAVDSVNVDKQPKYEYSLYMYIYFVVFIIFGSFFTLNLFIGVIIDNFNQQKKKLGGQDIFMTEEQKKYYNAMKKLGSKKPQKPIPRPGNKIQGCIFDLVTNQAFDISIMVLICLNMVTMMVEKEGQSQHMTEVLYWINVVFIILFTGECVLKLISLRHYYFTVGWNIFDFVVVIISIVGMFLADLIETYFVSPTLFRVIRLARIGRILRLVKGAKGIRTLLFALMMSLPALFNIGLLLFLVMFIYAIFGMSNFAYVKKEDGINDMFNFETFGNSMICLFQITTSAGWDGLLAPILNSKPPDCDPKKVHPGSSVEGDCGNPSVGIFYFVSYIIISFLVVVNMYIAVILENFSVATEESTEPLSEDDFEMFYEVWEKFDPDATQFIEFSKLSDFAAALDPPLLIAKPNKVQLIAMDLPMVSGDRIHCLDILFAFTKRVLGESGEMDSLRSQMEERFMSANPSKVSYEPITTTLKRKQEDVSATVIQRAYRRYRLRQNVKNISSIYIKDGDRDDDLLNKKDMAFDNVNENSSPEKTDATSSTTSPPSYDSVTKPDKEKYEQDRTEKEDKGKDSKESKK
Protocol: as §1, §2, §3

[3] = target: T1, human Nav1.5 channels stably expressed in HEK 293 cells; test: PatchXpress 7000 automated patch-clamp, inactivated state block; conditions: PatchXpress technique
Protocol: as §1
(§4) Sodium Current Measurements on the PatchXpress 7000®:
(§5) To measure inactivated state block of sodium channels, test compounds were characterized in an automated PatchXpress® assay (Molecular Devices) using a double-pulse protocol on human Nav1.7 and Nav1.5 channels stably expressed in HEK 293 cells. Cells were held at a potential 20 mV negative to V0.5 inact. An 8000 ms pre-pulse 7 mV positive to V0.5 inact was given followed by a hyperpolarizing 2 ms pulse to −120 mV and a 20 ms test pulse to −20 mV. Protocol was applied to cells in the absence, presence of compound and after washout. The temperature of PatchXpress instruments was maintained at 22° C. The following recording solutions were used. Internal solution (mM): 30 CsCl, 5 HEPES, 10 EGTA, 120 CsF, 5 NaF, 2 MgCl2. External solution (mM): 120 NMDG, 40 NaCl, 1 KCl, 0.5 MgCl2, 5 HEPES, 2.7 CaCl2.

[4] = target: T2, human Nav1.7 channels stably expressed in HEK 293 cells; test: as above; conditions: PatchXpress technique; read-out: Nav 1.7 potency
Protocol: as §1, §4, §5

Row | SMILES | Ratio 1.5:1.7 = Nav 1.5 potency (nM)/Nav1.7 potency (nM) [1] | IC50 [2] | Ratio 1.5:1.7 = Nav 1.5 potency (nM)/Nav1.7 potency (nM) [3] | IC50 [4]
1 | NC1CCc2cccc(Cn3ncc4cc(S(=O)(=O)Nc5ncns5)c(F)cc43)c2C1 (single isomer, unassigned) [Ex-13, (R or S)-1-((7-amino-5,6,7,8-tetrahydronaphthalen-1-yl)methyl)-6-fluoro-N-(1,2,4-thiadiazol-5-yl)-1H-indazole-5-sulfonamide] | 5406 | 6 nM | 2275 | 7 nM
2 | NC1CCc2cccc(Cn3ncc4cc(S(=O)(=O)Nc5ncns5)c(F)cc43)c2C1 (single isomer, unassigned) [Ex-14, (S or R)-1-((7-amino-5,6,7,8-tetrahydronaphthalen-1-yl)methyl)-6-fluoro-N-(1,2,4-thiadiazol-5-yl)-1H-indazole-5-sulfonamide] | 1394 | 24 nM | 1480 | 21 nM
3 | O=S(=O)(Nc1ncns1)c1cc2cnn(Cc3cccc4c3CNCC4)c2cc1F [Ex-1, 6-fluoro-1-((1,2,3,4-tetrahydroisoquinolin-8-yl)methyl)-N-(1,2,4-thiadiazol-5-yl)-1H-indazole-5-sulfonamide] | 311 | 106 nM | 310 | 153 nM
4 | O=S(=O)(Nc1nccs1)c1cc2cnn(Cc3cccc4c3CNCC4)c2cc1F [Ex-2, 6-fluoro-1-((1,2,3,4-tetrahydroisoquinolin-8-yl)methyl)-N-(thiazol-2-yl)-1H-indazole-5-sulfonamide] | 1200 | 25 nM | 2025 | 20 nM
5 | O=S(=O)(Nc1ncc(Cl)s1)c1cc2cnn(Cc3cccc4c3CNCC4)c2cc1F [Ex-3, N-(5-chlorothiazol-2-yl)-6-fluoro-1-((1,2,3,4-tetrahydroisoquinolin-8-yl)methyl)-1H-indazole-5-sulfonamide] | 91 | 328 nM | 636 | 52 nM
6 | O=S(=O)(Nc1cccc(F)n1)c1cc2cnn(Cc3cccc4c3CNCC4)c2cc1F [Ex-4, 6-fluoro-N-(6-fluoropyridin-2-yl)-1-((1,2,3,4-tetrahydroisoquinolin-8-yl)methyl)-1H-indazole-5-sulfonamide] | 58 | 519 nM | 64 | 855 nM
7 | NC/C=C/c1ccccc1Cn1ncc2cc(S(=O)(=O)Nc3ncns3)c(F)cc21 [Ex-5, (E)-1-(2-(3-aminoprop-1-en-1-yl)benzyl)-6-fluoro-N-(1,2,4-thiadiazol-5-yl)-1H-indazole-5-sulfonamide] | 963 | 34 nM | 560 | 54 nM
8 | C[C@H](c1cccc2c1CNCC2)n1ncc2cc(S(=O)(=O)Nc3ncns3)c(F)cc21 [Ex-6, (R)-6-fluoro-1-(1-(1,2,3,4-tetrahydroisoquinolin-8-yl)ethyl)-N-(1,2,4-thiadiazol-5-yl)-1H-indazole-5-sulfonamide] | 1066 | 21 nM | 320 | 94 nM
9 | O=S(=O)(Nc1ncns1)c1cc2cnn(Cc3ccccc3I)c2cc1F [Ex-7, 6-fluoro-1-(2-iodobenzyl)-N-1,2,4-thiadiazol-5-yl-1H-indazole-5-sulfonamide] | 19 | 340 nM |  | 
10 | CN(C)CCNC(=O)c1cccc(-c2cc(Cl)ccc2Cn2ncc3cc(S(=O)(=O)Nc4ncns4)ccc32)c1 [Ex-20, 5′-chloro-N-[2-(dimethylamino)ethyl]-2′-{[5-(1,2,4-thiadiazol-5-ylsulfamoyl)-1H-indazol-1-yl]methyl}biphenyl-3-carboxamide] | 34 | 960 nM |  | 
11 | O=S(=O)(Nc1ncns1)c1ccc2c(cnn2Cc2ccc(Cl)cc2C2=CC3CCC(C2)N3)c1 (centres unmarked) [Ex-21, 1-[2-(8-azabicyclo[3.2.1]oct-2-en-3-yl)-4-chlorobenzyl]-N-1,2,4-thiadiazol-5-yl-1H-indazole-5-sulfonamide] | 26 | 1260 nM |  | 
12 | C[C@H](c1ccccc1C#C[C@H]1CCCC[C@H]1N)n1ncc2cc(S(=O)(=O)Nc3cccc(F)n3)c(F)cc21 [Ex-50, 1-[(1R)-1-(2-{[(1R,2R)-2-amino-cyclohexyl]ethynyl}phenyl)ethyl]-6-fluoro-N-(6-fluoropyridin-2-yl)-1H-indazole-5-sulfonamide] |  |  | 17 | 689 nM
13 | NC1CCc2cccc(Cn3ncc4cc(S(=O)(=O)Nc5ncc(Cl)s5)c(F)cc43)c2C1 (centres unmarked) [Ex-53, 1-[(7-amino-5,6,7,8-tetrahydronaphthalen-1-yl)methyl]-N-(5-chloro-1,3-thiazol-2-yl)-6-fluoro-1H-indazole-5-sulfonamide] |  |  | 1193 | 8 nM
14 | C[C@H](c1cccc2c1CNCC2)n1ncc2cc(S(=O)(=O)Nc3ncc(Cl)s3)c(F)cc21 [Ex-54, N-(5-chloro-1,3-thiazol-2-yl)-6-fluoro-1-[(1R)-1-(1,2,3,4-tetrahydroisoquinolin-8-yl)ethyl]-1H-indazole-5-sulfonamide] |  |  | 50 | 137 nM
15 | C[C@H](c1cccc2c1CNCC2)n1cc2cc(S(=O)(=O)Nc3ncc(Cl)s3)c(F)cc2n1 [Ex-55, N-(5-chloro-1,3-thiazol-2-yl)-6-fluoro-2-[(1R)-1-(1,2,3,4-tetrahydro-isoquinolin-8-yl)ethyl]-2H-indazole-5-sulfonamide] |  |  | 152 | 111 nM
16 | C[C@H](c1ccccc1C#CCN)n1ncc2cc(S(=O)(=O)Nc3ncc(Cl)s3)c(F)cc21 [Ex-56, 1-{(1R)-1-[2-(3-aminoprop-1-yn-1-yl)phenyl]ethyl}-N-(5-chloro-1,3-thiazol-2-yl)-6-fluoro-1H-indazole-5-sulfonamide] |  |  | 39 | 244 nM
17 | Cc1cc2c(cnn2[C@H](C)c2cccc3c2CNCC3)cc1S(=O)(=O)Nc1cccc(F)n1 [Ex-60, N-(6-fluoropyridin-2-yl)-6-methyl-1-[(1R)-1-(1,2,3,4-tetrahydroisoquinolin-8-yl)ethyl]-1H-indazole-5-sulfonamide] |  |  | 457 | 58 nM
18 | Cc1cc2c(cnn2Cc2cccc3c2CC(N)CC3)cc1S(=O)(=O)Nc1cccc(F)n1 (centres unmarked) [Ex-61, 1-[(7-amino-5,6,7,8-tetrahydronaphthalen-1-yl)methyl]-N-(6-fluoropyridin-2-yl)-6-methyl-1H-indazole-5-sulfonamide] |  |  | 171 | 61 nM
19 | Cc1cc2c(cnn2Cc2cccc3c2CC(N)CC3)cc1S(=O)(=O)Nc1nccs1 (centres unmarked) [Ex-62, 1-[(7-amino-5,6,7,8-tetrahydronaphthalen-1-yl)methyl]-6-methyl-N-1,3-thiazol-2-yl-1H-indazole-5-sulfonamide] |  |  | 762 | 23 nM
20 | NC/C=C/c1ccccc1Cn1ncc2cc(S(=O)(=O)Nc3ncns3)cc(Cl)c21 [Ex-63, 1-{2-[(1E)-3-aminoprop-1-en-1-yl]benzyl}-7-chloro-N-1,2,4-thiadiazol-5-yl-1H-indazole-5-sulfonamide] | > 19 | 1720 nM |  | 
